Results reported in patent publication US11696903B2, “Compounds and methods for scavenging dicarbonyl electrophiles” (VANDERBILT UNIVERSITY, priority 2019, dated 2023).

Tests used:
[1] = system: gastric uptake of 18F-NaF (tumor marker) and 18F-FDG (inflammation marker); test: PET/CT imaging with 18F-FDG and 18F-NaF; assay type: in vivo; conditions: Hp-infected mice, EtSA
Description: As discussed further in the Examples, the human gastric epithelial cell line AGS was infected with Hp PMSS1±10 mM EtSA. FVB/N insulin-gastrin (INS-GAS) mice and Mongolian gerbils were infected for 8 wk with Hp PMSS1 and 7.13, respectively; EtSA (0.75% in water) was given to animals beginning one wk post-infection. Lys-LG adducts, a marker of electrophile reactions, and EtSA were quantified by LC/EST/MS/MS. Histology was analyzed on H&E staining. DNA damage was evaluated by pH2AX staining. Hp colonization was quantified by culture. Mucosal immune responses were determined by RNA profiling and by Luminex assay. Mice were imaged using PET/CT with ^18F-FDG (inflammation marker) and ^18F—NaF (tumor marker).

[2] = system: LG-histone adducts in RAW264.7 cells; test: LG-lysyl adduct formation on histones in RAW264.7 cells (LC/ESI/MS/MS); assay type: cell-based, mouse
Description: (§1) FIGS. 11A, 11B, 11C, 11D, 11E, and 11F are a series of graphs showing that LG-lysine adducts of histones are found in cells and tissue, dependent on COX-2 activity. RAW264.7 mouse macrophage (A) and A549 human lung carcinoma (C) cells were stimulated to express COX-2, then given 20 μM arachidonic acid (AA) or vehicle. A subgroup of cells was preincubated 45 min with 50 μM indomethacin. As a measure of COX activity, PGE2 was determined by GC/MS from cell media prior to lysis (B and D). Nuclei were isolated, and histones were extracted and digested to individual amino acids prior to LC/EST/MS/MS analysis. *, p<0.05; ***, p<0.001 by ANOVA followed by Tukey's post-test (n≥5). (E). Histones were extracted from nuclei of rat liver, and analyzed as above for LG-lactam adduct. COX-2 protein was analyzed by Western blotting and plotted against lactam adduct levels. Each point corresponds to 1 liver, and shown is the line of regression (r^2=0.7237). Pearson r=0.8507; two-tailed p=0.0152. (F) LC-MS chromatograph of histones isolated from a rat liver with relatively high COX-2 expression (COX-2 band intensity of 117 arbitrary units).
(§2) (A). Scavengers were screened in RAW264.7 cells for the ability to decrease LG adduct formation on histones. Scavengers used were glucosamine (GA), 3-methoxysalicylamine (3-MoSA), pentylpyridoxamine (PPM), and 5-ethylsalicylamine (EtSA). Cells were stimulated to express COX-2, pretreated 45 min. with 500 μM scavenger or vehicle (H2O), and given 20 μM AA for 1 h before lysing and extracting histones. Histone proteins were analyzed by LC/ESI/MS/MS for LG-lysyl lactam adduct, n=2. (B) Stimulated A549 cells were pretreated with 30, 300, or 1000 μM EtSA prior to 1 h with 20 μM AA, and histones analyzed for LG-lysyl adduct. *, p<0.05 by one-way ANOVA followed by Dunnett's multiple comparisons post-test (n=3-5). (C). A549 cells were stimulated, pretreated 45 min. with 1000 μM EtSA or H2O vehicle, and given 20 μM AA for 1 h. Media was analyzed by GC/MS for PGE2 (n=3). There was no effect on PGE2 production at lower doses of EtSA (data not shown).
(§3) To stimulate COX-2 expression, A549 or RAW264.7 cells were treated overnight with 5 ng/mL IL-1B (A549) or 10 μg/mL LPS and 10 U/mL IFNγ (RAW264.7) in serum-free medium. When indicated, cells were pretreated with indomethacin, aldehyde scavengers (glucosamine, 3-MoSA, PPM or EtSA), or vehicle (ethanol for indomethacin, H2O for scavengers) for 45 min, and then given 20 μM arachidonic acid (AA) or DMSO vehicle for 1 h before lysing.
Cultured cells were lysed in hypotonic buffer (10 mM Tris/10 mM NaCl/3 mM MgCl2) containing 1 mM pyridoxamine and 100 μM indomethacin to prevent the artifactual formation of LGE2 during the lytic process. […] Protein concentration was determined using the method of Bradford. […]

COX-2 activity = test: PGE2 production in A549 cell media (GC/MS) as measure of COX-2 activity; assay type: cell-based, human
Description: as §2
as §3, with “lysing. […]” for “lysing.”

[3] = system: LG-histone adducts in A549 cells; test: LG-lysyl adduct formation on histones in A549 cells (LC/ESI/MS/MS); assay type: cell-based, human; conditions: stimulated A549, 30, 300 or 1000 μM EtSA, 20 μM AA 1 h
Description: as §1, with “(F) LC-MS chromatograph of histones isolated from a rat liver with relatively high COX-2 expression (COX-2 band intensity of 117 arbitrary units).” left out
(A). […] Histone proteins were analyzed by LC/ESI/MS/MS for LG-lysyl lactam adduct, n=2. (B) Stimulated A549 cells were pretreated with 30, 300, or 1000 μM EtSA prior to 1 h with 20 μM AA, and histones analyzed for LG-lysyl adduct. *, p<0.05 by one-way ANOVA followed by Dunnett's multiple comparisons post-test (n=3-5). […] Media was analyzed by GC/MS for PGE2 (n=3). […]

CCc1ccc(O)c(CN)c1 [EtHOBA, 5-ethyl-2-hydroxybenzylamine]
gastric uptake of the tumor marker 18F-NaF [1]: decreased
uptake of the inflammation marker 18F-FDG [1]: not modified
potency in protecting histones from modification by levuglandins ([2]; in comparison with salicylamine, pyridoxamine and their other analogues): most potent
LG adduct formation on histones ([2]; stimulated RAW264.7, 500 μM scavenger 45 min, 20 μM AA 1 h): most effectively blocked
PGE2 production (COX-2 activity; A549, highest concentration tested (1000 μM EtSA)): without affecting
PGE2 production (COX-2 activity; A549, lower doses of EtSA (data not shown)): no effect
LG-histone adduct formation [3]: inhibited
